Measurements reported in patent US20140045746A1 (Merck Sharp & Dohme Corp., priority 2012, published 2014).
Values after ≈ are worked out from the molar mass of the structure shown. Read-outs that look alike come from different tables or passages of the source.

Assays:
[1] = target: KV11.1 ion channel (hERG) (Homo sapiens, UniProt Q12809); assay: Binding to ion channel Kv11.1 (hERG)
Solubility in PBS pH 7 = assay type: physicochemical; details: aqueous buffer; pH 7, PBS
hGPR40 = hGPR40 (Homo sapiens, UniProt O14842); assay: GPR40 Inositol Phosphate Turnover (IP1) Assay; assay type: cell-based; set-up: expressed in transfected cells; host or cells: HEK cells stably expressing the aequorin reporter
Sequence of hGPR40 (O14842 whole entry): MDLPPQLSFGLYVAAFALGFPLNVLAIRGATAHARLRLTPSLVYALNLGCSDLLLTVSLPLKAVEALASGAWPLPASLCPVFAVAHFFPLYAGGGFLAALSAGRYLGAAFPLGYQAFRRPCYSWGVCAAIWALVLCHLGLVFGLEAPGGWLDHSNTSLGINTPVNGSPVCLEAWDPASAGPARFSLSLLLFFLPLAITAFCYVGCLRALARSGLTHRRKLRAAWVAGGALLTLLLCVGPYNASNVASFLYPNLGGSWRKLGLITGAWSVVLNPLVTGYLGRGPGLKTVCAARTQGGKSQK
Experimental: A human GPR40 stable cell-line was generated in HEK cells stably expressing the aequorin expressing reporter.
The assay is performed in 96-well format. HEK cells stably expressing human GPR^40 are plated to be 60-80% confluent within 72 h. After 72 h, the plates are aspirated and the cells washed with inositol-free DMEM (ICN). The wash media is replaced with 150 μL of 3H-inositol labeling media (inositol-free media containing 0.4% human albumin or 0.4% mouse albumin, 1× pen/strep antibiotics, glutamine, 25 mM HEPES to which is added 3H-myo-inositol NEN #NET114A 1mCi/mL, 25 Ci/mmol diluted 1:150 in loading media with a final specific radioactivity of 1 μCi/150 μL). Alternatively, the human and mouse albumin can be added after the overnight labeling step before the addition of LiCl.
The assay is typically run the next day after 18 h labeling. On the day of the assay, 5 μL, of 300 mM LiCl is added to all wells and incubated at 37 degrees for 20 min. 0.75 μL of 200× compounds are added and incubated with the cells for 60 min at 37 degrees. The media is then aspirated off and the assay terminated with the addition of 60 nI, 10 mM formic acid. The cells are lysed for 60 min at room temperature. 15-30 nI, of lysate is mixed with 70 mL/1 mg YSi SPA beads (Amersham) in clear bottom Isoplates. The plates are shaken for 2 h at room temperature. Beads are allowed to settle and the plates are counted in the Wallac Microbeta.

[2] = +0% human serum (Table A), read-out: Human GPR40 IP1, EC50, +0% human serum
[3] = +100% human serum (Table A), read-out: Human GPR40 IP1, EC50, +100% human serum

Sequence of KV11.1 ion channel (hERG) (Q12809 whole entry): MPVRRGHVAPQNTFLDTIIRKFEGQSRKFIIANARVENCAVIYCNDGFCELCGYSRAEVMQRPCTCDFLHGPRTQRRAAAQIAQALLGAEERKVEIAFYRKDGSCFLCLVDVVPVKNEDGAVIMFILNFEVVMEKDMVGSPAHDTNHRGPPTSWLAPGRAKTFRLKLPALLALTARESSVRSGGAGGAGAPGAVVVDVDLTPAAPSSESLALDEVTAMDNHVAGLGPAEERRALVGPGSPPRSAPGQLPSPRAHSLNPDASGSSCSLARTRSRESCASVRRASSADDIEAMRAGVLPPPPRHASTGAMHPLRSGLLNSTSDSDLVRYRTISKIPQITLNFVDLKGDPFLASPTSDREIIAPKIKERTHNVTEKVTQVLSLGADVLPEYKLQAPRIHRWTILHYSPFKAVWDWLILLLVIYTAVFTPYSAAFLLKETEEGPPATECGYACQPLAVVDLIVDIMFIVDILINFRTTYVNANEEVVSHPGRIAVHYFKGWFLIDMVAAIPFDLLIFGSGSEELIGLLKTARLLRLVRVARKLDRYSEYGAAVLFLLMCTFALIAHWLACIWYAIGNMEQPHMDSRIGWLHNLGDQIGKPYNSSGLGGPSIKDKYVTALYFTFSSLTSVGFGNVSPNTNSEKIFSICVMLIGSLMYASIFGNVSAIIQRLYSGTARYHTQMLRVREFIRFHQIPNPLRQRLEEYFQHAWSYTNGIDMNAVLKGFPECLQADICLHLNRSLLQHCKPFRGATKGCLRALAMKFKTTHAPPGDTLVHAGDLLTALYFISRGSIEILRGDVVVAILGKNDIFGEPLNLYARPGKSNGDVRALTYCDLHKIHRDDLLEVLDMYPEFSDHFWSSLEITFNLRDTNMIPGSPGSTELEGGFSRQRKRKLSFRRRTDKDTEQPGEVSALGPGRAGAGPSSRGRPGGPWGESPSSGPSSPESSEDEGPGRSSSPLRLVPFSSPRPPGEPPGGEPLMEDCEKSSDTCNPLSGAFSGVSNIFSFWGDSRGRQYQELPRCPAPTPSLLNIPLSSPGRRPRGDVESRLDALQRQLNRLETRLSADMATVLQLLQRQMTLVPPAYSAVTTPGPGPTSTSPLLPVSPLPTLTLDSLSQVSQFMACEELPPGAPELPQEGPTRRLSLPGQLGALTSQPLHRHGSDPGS

Row | SMILES | Ki [1] | solubility (Solubility in PBS pH 7) | EC50 (hGPR40; [2]) | EC50 (hGPR40; [3])
1 | Cc1cc(CCCC(C)(C)O)cc(C)c1-c1ccc(F)c(COc2cc3c(cn2)[C@H]2[C@@H](C3)[C@@H]2C(=O)O)c1 (single isomer, unassigned) [Compound A-4] | 7500 nM | 143 µM (≈ 72 µg/mL) | 5 nM | 124 nM
2 | Cc1cccc(C)c1-c1cccc(COc2cc3c(cn2)[C@H]2[C@@H](C3)[C@@H]2C(=O)O)c1C [Compound A-1] | 40000 nM | 73 µM (≈ 29.2 µg/mL) | 6 nM | 81 nM
3 | Cc1cccc(C)c1-c1cccc(COc2ccc3c(c2)C[C@H]2[C@H](C(=O)O)[C@@H]32)c1C [Compound B-1, reference compound] | 6000 nM | 56 µM (≈ 22.3 µg/mL) | 69 nM | 322 nM
4 | Cc1cc(OCC2(C)COC2)cc(C)c1-c1cccc(COc2ccc3c(c2)C[C@H]2[C@H](C(=O)O)[C@@H]32)c1 [Compound B-2, reference compound] | 8600 nM | 21 µM (≈ 10.2 µg/mL) | 70 nM | 816 nM
5 | Cc1cc(OCC2(C)COC2)cc(C)c1-c1ccc(F)c(COc2ccc3c(c2)C[C@H]2[C@H](C(=O)O)[C@@H]32)c1 [Compound B-3, reference compound] | 7800 nM | 49 µM (≈ 24.6 µg/mL) | 31 nM | 286 nM
